We go through one molecule from article PMC9929232, “On-demand male contraception via acute inhibition of soluble adenylyl cyclase” (Nature Communications, 2023).

Data set [1] deals with T1, sAC-overexpressing rat 4-4 cells (Rattus norvegicus, UniProt Q9Z286).
T1 construct: expressed in transfected cells
T1 sequence (Q9Z286 1-469 limits assumed): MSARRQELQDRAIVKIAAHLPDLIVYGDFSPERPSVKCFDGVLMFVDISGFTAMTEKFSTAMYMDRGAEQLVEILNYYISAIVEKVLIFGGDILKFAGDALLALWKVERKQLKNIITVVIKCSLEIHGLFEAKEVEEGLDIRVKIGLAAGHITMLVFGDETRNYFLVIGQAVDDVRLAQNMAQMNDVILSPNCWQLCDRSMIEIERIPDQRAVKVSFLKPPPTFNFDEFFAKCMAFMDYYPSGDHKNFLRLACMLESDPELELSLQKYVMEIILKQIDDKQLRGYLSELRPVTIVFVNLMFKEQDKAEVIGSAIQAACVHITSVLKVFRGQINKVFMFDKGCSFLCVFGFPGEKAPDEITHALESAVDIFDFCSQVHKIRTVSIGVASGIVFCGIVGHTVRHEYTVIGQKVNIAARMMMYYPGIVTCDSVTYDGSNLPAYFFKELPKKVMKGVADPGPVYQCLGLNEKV
Set-up: method as in PMID 36246105. Conditions: read-out: IC50 in cellular assays; cited from earlier work.

Data set [2] in a line: TDI-11155 blood concentration during osmotic minipump delivery. The format is in vivo, mouse. The method, then:
(§1) At defined time points (15 min to 24 hours post-injection), 10 μl tail blood was progressively collected from the same males, mixed with 20 μl 15 mM EDTA, frozen in liquid nitrogen, and stored at −80 °C until analysis. Liver, kidney, eye, testis, caput and cauda epididymis, and seminal vesicle were collected, weighed, and homogenized in a threefold volume of 1:1 EtOH/H2O (v/v). […] Mice anesthetized with ketamine/xylazine were shaved and residual hair was removed with hair removal cream. A small incision was made with a scalpel, a hemostat was used to create a pump-size pocket under the skin, and the pump was inserted with the pump opening facing away from the incision. After the wound was closed, mice were treated with meloxicam for pain relief. For 7 or 42 days post-surgery, tail blood was collected at regular intervals.

Data set [3] concerns testis, epididymis, kidneys, eyes, liver, spleen, pancreas. Conditions: mouse, in vivo. The method, then:
as §1
Blinded histopathological evaluation of indicated organs (testis, epididymis, kidneys, eyes, liver, spleen, and pancreas) was performed by a board-certified comparative pathologist at the WCM Laboratory of Comparative Pathology. […] Organs were fixed in 10% neutral buffered formalin followed by embedding into paraffin. Sections were cut followed by staining with hematoxylin and eosin (H&E) for microscopic evaluation.

On to `Cn1cc(Cc2ccccc2OCCN2CCOCC2)c(-c2cc(Cl)nc(N)n2)n1` [TDI-11155], for which the half-maximal inhibitory concentration (IC50) in data set [1] was 16 nM. Besides, the “delivered level relative to cellular IC50” value in data set [2] (7 days) is 15 fold. Further, in data set [2] (42 days), the “delivered level relative to cellular IC50” value is recorded as “threefold”. Further, in data set [3], the “Epididymis: Epithelial karyomegaly” value is on record as 2, MF; the “Epididymis: Exfoliated germ cells” value is 1, MF; the Eyes entry was “N”; the “Kidneys: Lymphoplasmacytic and histiocytic infiltrates, pelvic” value is given as 1, MF. In addition, in data set [3], the “Kidneys: Tubular basophilia, cortical” value is on record as 1, F; the “Kidneys: Tubular mineralization, papillary” value is recorded as 1, F; the “Liver: Extramedullary hematopoiesis, random” value was 1, MF; the “Liver: Lymphoplasmacytic, histiocytic, and neutrophilic hepatitis, midzonal” value is 1, F. In data set [3], the “Liver: Lymphoplasmacytic, histiocytic, and neutrophilic hepatitis, periportal” value was 2, F; the Pancreas entry was “N”; the Spleen entry is “N”; the “behavioral effects during treatment” value is “no observed behavioral effects”. Besides, in data set [3], the “gross abnormalities in major organs at study termination” value is given as “no gross abnormalities” and the “salt precipitation in kidneys” value was “no signs of salt precipitation”.
